Assay results reported in paper PMC6009956, “Design, synthesis and biological activity of N^4-phenylsubstituted-7H-pyrrolo[2,3-d]pyrimidin-4-amines as dual inhibitors of aurora kinase A and epidermal growth factor receptor kinase” (Journal of Enzyme Inhibition and Medicinal Chemistry, 2017).
Read-outs that look alike come from different tables or passages of the source.

Legend:
EGFR = EGFR (Homo sapiens, UniProt P00533); assay: ADP-Glo kinase assay, EGFR; assay type: biochemical; set-up: purchased BPS Bioscience (assay run externally by the vendor)
aurora A kinase (AURKA) = molecular target: T1, aurora A kinase (AURKA) (Homo sapiens, UniProt O14965); assay: ADP-Glo kinase assay, Aurora A; assay type: biochemical
T1 construct: purchased BPS Bioscience (assay run externally by the vendor)
T1 sequence (O14965 1-403): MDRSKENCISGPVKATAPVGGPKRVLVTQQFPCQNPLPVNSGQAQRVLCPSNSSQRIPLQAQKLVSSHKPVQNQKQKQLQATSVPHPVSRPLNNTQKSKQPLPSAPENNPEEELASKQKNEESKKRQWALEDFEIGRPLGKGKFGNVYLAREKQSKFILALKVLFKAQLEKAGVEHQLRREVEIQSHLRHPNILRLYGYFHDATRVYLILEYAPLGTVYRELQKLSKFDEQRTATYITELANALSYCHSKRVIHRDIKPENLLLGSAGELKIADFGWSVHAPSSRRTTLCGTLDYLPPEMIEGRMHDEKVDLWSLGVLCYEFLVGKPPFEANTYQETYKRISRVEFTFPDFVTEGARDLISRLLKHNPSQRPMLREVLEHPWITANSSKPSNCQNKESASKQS

Sequence of EGFR (P00533 25-1210): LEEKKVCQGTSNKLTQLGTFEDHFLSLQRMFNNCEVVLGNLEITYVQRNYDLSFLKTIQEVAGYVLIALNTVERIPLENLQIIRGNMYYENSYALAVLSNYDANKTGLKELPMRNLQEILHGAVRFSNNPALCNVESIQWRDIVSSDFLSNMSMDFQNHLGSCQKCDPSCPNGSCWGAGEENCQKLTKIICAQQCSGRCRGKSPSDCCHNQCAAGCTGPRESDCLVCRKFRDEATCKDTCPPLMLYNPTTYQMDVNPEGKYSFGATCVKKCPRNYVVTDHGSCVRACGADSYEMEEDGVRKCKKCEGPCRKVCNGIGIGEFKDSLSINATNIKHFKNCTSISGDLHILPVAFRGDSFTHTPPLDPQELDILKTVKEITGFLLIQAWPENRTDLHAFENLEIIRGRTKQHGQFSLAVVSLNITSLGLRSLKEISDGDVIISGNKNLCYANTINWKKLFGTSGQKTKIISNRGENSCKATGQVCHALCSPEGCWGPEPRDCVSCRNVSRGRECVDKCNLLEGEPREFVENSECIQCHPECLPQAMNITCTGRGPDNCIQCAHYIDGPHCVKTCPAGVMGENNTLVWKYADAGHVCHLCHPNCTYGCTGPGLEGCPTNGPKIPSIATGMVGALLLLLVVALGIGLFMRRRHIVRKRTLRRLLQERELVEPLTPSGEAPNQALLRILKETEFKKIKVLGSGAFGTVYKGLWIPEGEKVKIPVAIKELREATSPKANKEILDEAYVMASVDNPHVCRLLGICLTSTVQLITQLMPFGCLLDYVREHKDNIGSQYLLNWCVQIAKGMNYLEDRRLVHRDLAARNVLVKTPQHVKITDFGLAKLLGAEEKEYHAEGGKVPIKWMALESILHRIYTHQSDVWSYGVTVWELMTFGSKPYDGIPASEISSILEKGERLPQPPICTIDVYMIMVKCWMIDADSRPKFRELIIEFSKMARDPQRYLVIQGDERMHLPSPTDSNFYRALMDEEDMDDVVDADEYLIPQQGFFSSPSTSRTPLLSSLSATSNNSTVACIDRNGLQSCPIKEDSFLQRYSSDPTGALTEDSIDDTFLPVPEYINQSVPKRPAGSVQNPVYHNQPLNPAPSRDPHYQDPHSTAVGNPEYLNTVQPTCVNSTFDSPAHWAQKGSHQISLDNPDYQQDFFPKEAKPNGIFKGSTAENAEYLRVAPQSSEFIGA

Fc1cc(Nc2ncnc3[nH]ccc23)ccc1Cl [Compound 3, N^4-(3-fluoro-4-chlorophenyl)-7H-pyrrolo[2,3-d]pyrimidine-4-amine]
EGFR inhibition (in words) (EGFR): single-digit nanomolar EGFR inhibition | IC50 (EGFR; 10 µM ATP, triplicate, read-out: EGFR IC50 ± SD): 5.98 ± 0.61 nM | IC50 (EGFR; 10 µM ATP/0.2 mg/ml Poly-Glu-Tyr, read-out: EGFR IC50 (dose-response curve, supplement)): 5.9 nM | EGFR % Activity Set1 (EGFR; Log[nM] 0): 57% | EGFR % Activity Set2 (EGFR; Log[nM] 0): 58% | EGFR % Activity Set3 (EGFR; Log[nM] 0): 56% | EGFR % Activity Set1 (EGFR; Log[nM] 1.0): 38% | EGFR % Activity Set2 (EGFR; Log[nM] 1.0): 37% | EGFR % Activity Set3 (EGFR; Log[nM] 1.0): 40% | EGFR % Activity Set1 (EGFR; Log[nM] 1.5): 13% | EGFR % Activity Set2 (EGFR; Log[nM] 1.5): 16% | EGFR % Activity Set3 (EGFR; Log[nM] 1.5): 16% | EGFR % Activity Set1 (EGFR; Log[nM] 2.0): 7% | EGFR % Activity Set2 (EGFR; Log[nM] 2.0): 7% | EGFR % Activity Set3 (EGFR; Log[nM] 2.0): 8% | EGFR % Activity Set1 (EGFR; Log[nM] 2.5): 2% | EGFR % Activity Set2 (EGFR; Log[nM] 2.5): 4% | EGFR % Activity Set3 (EGFR; Log[nM] 2.5): 3% | EGFR % Activity Set1 (EGFR; Log[nM] 3.0): 1% | EGFR % Activity Set2 (EGFR; Log[nM] 3.0): 1% | EGFR % Activity Set3 (EGFR; Log[nM] 3.0): 2% | EGFR % Activity Set1 (EGFR; Log[nM] 3.5): 0% | EGFR % Activity Set2 (EGFR; Log[nM] 3.5): 1% | EGFR % Activity Set3 (EGFR; Log[nM] 3.5): 0% | EGFR % Activity Set1 (EGFR; Log[nM] 4.0): 0% | EGFR % Activity Set2 (EGFR; Log[nM] 4.0): 0% | EGFR % Activity Set3 (EGFR; Log[nM] 4.0): 0% | EGFR % Activity Set1 (EGFR; Log[nM] 4.5): 0% | EGFR % Activity Set2 (EGFR; Log[nM] 4.5): 0% | EGFR % Activity Set3 (EGFR; Log[nM] 4.5): 0% | EGFR % Activity Set1 (EGFR; Log[nM] 5.0): 0% | EGFR % Activity Set2 (EGFR; Log[nM] 5.0): 0% | EGFR % Activity Set3 (EGFR; Log[nM] 5.0): 0% | IC50 (aurora A kinase (AURKA); 10 µM ATP, triplicate, read-out: AURKA IC50 ± SD): 3290 ± 150 nM | IC50 (aurora A kinase (AURKA); 10 µM ATP/0.2 mg/ml Kemptide, read-out: Aurora A IC50 (dose-response curve, supplement)): 3300 nM | Aurora A % Activity Set1 (aurora A kinase (AURKA); Log[nM] 0): 95% | Aurora A % Activity Set2 (aurora A kinase (AURKA); Log[nM] 0): 93% | Aurora A % Activity Set3 (aurora A kinase (AURKA); Log[nM] 0): 100% | Aurora A % Activity Set1 (aurora A kinase (AURKA); Log[nM] 1.0): 99% | Aurora A % Activity Set2 (aurora A kinase (AURKA); Log[nM] 1.0): 96% | Aurora A % Activity Set3 (aurora A kinase (AURKA); Log[nM] 1.0): 101% | Aurora A % Activity Set1 (aurora A kinase (AURKA); Log[nM] 1.5): 99% | Aurora A % Activity Set2 (aurora A kinase (AURKA); Log[nM] 1.5): 94% | Aurora A % Activity Set3 (aurora A kinase (AURKA); Log[nM] 1.5): 105% | Aurora A % Activity Set1 (aurora A kinase (AURKA); Log[nM] 2.0): 105% | Aurora A % Activity Set2 (aurora A kinase (AURKA); Log[nM] 2.0): 104% | Aurora A % Activity Set3 (aurora A kinase (AURKA); Log[nM] 2.0): 107% | Aurora A % Activity Set1 (aurora A kinase (AURKA); Log[nM] 2.5): 104% | Aurora A % Activity Set2 (aurora A kinase (AURKA); Log[nM] 2.5): 105% | Aurora A % Activity Set3 (aurora A kinase (AURKA); Log[nM] 2.5): 103% | Aurora A % Activity Set1 (aurora A kinase (AURKA); Log[nM] 3.0): 78% | Aurora A % Activity Set2 (aurora A kinase (AURKA); Log[nM] 3.0): 75% | Aurora A % Activity Set3 (aurora A kinase (AURKA); Log[nM] 3.0): 77% | Aurora A % Activity Set1 (aurora A kinase (AURKA); Log[nM] 3.5): 53% | Aurora A % Activity Set2 (aurora A kinase (AURKA); Log[nM] 3.5): 57% | Aurora A % Activity Set3 (aurora A kinase (AURKA); Log[nM] 3.5): 52% | Aurora A % Activity Set1 (aurora A kinase (AURKA); Log[nM] 4.0): 17% | Aurora A % Activity Set2 (aurora A kinase (AURKA); Log[nM] 4.0): 16% | Aurora A % Activity Set3 (aurora A kinase (AURKA); Log[nM] 4.0): 16% | Aurora A % Activity Set1 (aurora A kinase (AURKA); Log[nM] 4.5): 7% | Aurora A % Activity Set2 (aurora A kinase (AURKA); Log[nM] 4.5): 6% | Aurora A % Activity Set3 (aurora A kinase (AURKA); Log[nM] 4.5): 7% | Aurora A % Activity Set1 (aurora A kinase (AURKA); Log[nM] 5.0): 6% | Aurora A % Activity Set2 (aurora A kinase (AURKA); Log[nM] 5.0): 5% | Aurora A % Activity Set3 (aurora A kinase (AURKA); Log[nM] 5.0): 5%

CN[C@@H]1C[C@H]2O[C@@](C)([C@@H]1OC)n1c3ccccc3c3c4c(c5c6ccccc6n2c5c31)C(=O)NC4 [Staurosporine, staurosporine, reference compound]
Aurora A % Activity Set1 (aurora A kinase (AURKA); Log[nM] 0): 109% | Aurora A % Activity Set2 (aurora A kinase (AURKA); Log[nM] 0): 103% | Aurora A % Activity Set3 (aurora A kinase (AURKA); Log[nM] 0): 109% | Aurora A % Activity Set1 (aurora A kinase (AURKA); Log[nM] 1.0): 102% | Aurora A % Activity Set2 (aurora A kinase (AURKA); Log[nM] 1.0): 101% | Aurora A % Activity Set3 (aurora A kinase (AURKA); Log[nM] 1.0): 102% | Aurora A % Activity Set1 (aurora A kinase (AURKA); Log[nM] 1.5): 73% | Aurora A % Activity Set2 (aurora A kinase (AURKA); Log[nM] 1.5): 69% | Aurora A % Activity Set3 (aurora A kinase (AURKA); Log[nM] 1.5): 85% | Aurora A % Activity Set2 (aurora A kinase (AURKA); Log[nM] 2.0): 9% | Aurora A % Activity Set1 (aurora A kinase (AURKA); Log[nM] -0.5): 98% | Aurora A % Activity Set2 (aurora A kinase (AURKA); Log[nM] -0.5): 100% | Aurora A % Activity Set3 (aurora A kinase (AURKA); Log[nM] -0.5): 102% | Aurora A % Activity Set1 (aurora A kinase (AURKA); Log[nM] -1.0): 100% | Aurora A % Activity Set2 (aurora A kinase (AURKA); Log[nM] -1.0): 93% | Aurora A % Activity Set3 (aurora A kinase (AURKA); Log[nM] -1.0): 102%
